Consider two molecules from patent publication US7915270B2, “Oxazole ketones as modulators of fatty acid amide hydrolase” (The Scripps Research Institute, priority 2006, dated 2011).

Series [1] is described as follows: Pharmacokinetic testing, intravenous bolus in rats. The following applies: rat, plasma, 2 mg/kg, male Sprague Dawley rats, 1 mg/mL in 2 mL/kg. Type of series: in vivo. On the procedure: For each test compound, two male Sprague Dawley Rats (Charles River Laboratories; approx. 300 g body weight) were used. Animals were individually housed, provided food and water ad libitum, and were maintained on a 12 h light and dark cycle. Animals received from the vendor were surgically cannulated by the vendor with right jugular vein and left carotid artery catheters. Animals were acclimatized for at least 5 days after receipt from the vendor prior to investigations.
Animals received a bolus intravenous dose of the test compound at a dose of 1 mg/mL in a volume of 2 mL/kg via the right jugular vein catheter. The intravenous dosing solution was prepared in 55% pharmasolve, 20% cremophor, and […] physiological saline, or 100% saline adjusted to pH 8.0.
Following intravenous administration, blood was collected (sampled 0.35 mL per time point from the left carotid artery catheter) at 0.083, 0.25, 0.5, 1, 2, 4, and 6 h post-dose. Blood was collected into tubes containing EDTA and stored at 4° C. for not more than 2 h. The samples were centrifuged at 10,000 rpm in a micro-centrifuge for 5 min to obtain a plasma fraction. The plasma was stored at between −20 and −80° C. until processed for analysis. These samples were analyzed by LC-MS/MS to determine the plasma level of the compound.
Plasma level vs. time plots were created and WinNonlin (Pharsight Corp.) was used to analyze the data. A non-compartmental pharmacokinetic model was used to determine the pharmacokinetic parameters, including clearance, volume of distribution (Vd), and half-life (t1/2).

The target in the next series is T1, Rat FAAH (Rattus norvegicus, UniProt P97612).
T1 construct: expressed in transfected cells
T1 sequence (P97612 1-579): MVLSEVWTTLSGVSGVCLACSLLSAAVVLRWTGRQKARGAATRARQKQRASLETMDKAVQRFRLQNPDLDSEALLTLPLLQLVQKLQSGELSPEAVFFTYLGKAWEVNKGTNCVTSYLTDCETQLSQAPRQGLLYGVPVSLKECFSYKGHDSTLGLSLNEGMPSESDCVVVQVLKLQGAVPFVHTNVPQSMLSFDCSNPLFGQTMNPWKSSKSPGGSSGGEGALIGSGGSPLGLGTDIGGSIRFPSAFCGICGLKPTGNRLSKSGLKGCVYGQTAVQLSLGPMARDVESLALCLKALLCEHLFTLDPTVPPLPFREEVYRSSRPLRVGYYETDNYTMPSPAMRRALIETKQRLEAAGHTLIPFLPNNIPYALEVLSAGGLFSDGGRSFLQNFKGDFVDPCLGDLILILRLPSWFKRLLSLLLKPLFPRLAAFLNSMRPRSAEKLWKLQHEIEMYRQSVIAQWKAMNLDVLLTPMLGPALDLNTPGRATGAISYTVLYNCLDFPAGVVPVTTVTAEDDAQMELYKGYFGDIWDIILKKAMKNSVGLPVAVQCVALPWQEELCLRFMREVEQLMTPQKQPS
In words: Assay Method 2: FAAH assay, 3H-anandamide hydrolysis in cell homogenate (SK-N-MC cells transfected with rat FAAH). Type of series: biochemical. The following applies: 3H-AEA 80 nM, rt 1 h, pH 9.

The nature of series [2]: Solubility determination in water. It counts as physicochemical. The following applies: thermodynamic from solid; in water at 5, 1 and 0.1 mg/mL; pH of resulting solutions 7-8.5. On the procedure: Physical Chemical Properties
Solubility determinations were made by mixing the test compound in water at 5 mg/mL, 1 mg/mL, and 0.1 mg/mL concentrations. The pH of the resulting solutions was 7-8.5.

As to `O=C(O)c1cccc(-c2cnc(C(=O)CCCCCCc3ccccc3)o2)n1` [Example 37, 6-(2-(7-Phenylheptanoyl)oxazol-5-yl)picolinic acid], in series [1], the distribution volume (Vd) came out at 0.86 L/kg, the clearance is 7.67 mL/min/kg and the half-life is 74.4 min. Further, at Rat FAAH, half-maximal inhibition (IC50) required 11 nM. Also, the solubility in series [2] is > 5000 µg/mL.
For `O=C(O)c1ccc(-c2cnc(C(=O)CCCCCCc3ccccc3)o2)nc1` [Example 38, 6-(2-(7-Phenylheptanoyl)oxazol-5-yl)nicotinic acid] the same measures were 1.4 L/kg, 112 mL/min/kg, 9 min, 2 nM and > 5000 µg/mL.

For orientation: Vd means the apparent volume that relates the amount in the body to the concentration in plasma or blood. One may read the clearance as the volume of plasma or blood freed of the substance per unit of time. A low value points to a low capacity for elimination. As usually defined, the half-life is the time in which the quantity being followed falls by half. Read a low half-life as rapid decline. The IC50 is the concentration that inhibits the measured activity by half. A word on the solubility: it is the dissolved amount per volume that the medium holds. High values mean much dissolved substance, low ones little dissolved substance.
